Data from article PMC9475448, “What a difference a methylene makes: replacing Glu with Asp or Aad in the Lys-urea-Glu pharmacophore of PSMA-targeting radioligands to reduce kidney and salivary gland uptake” (Theranostics, 2022).

How the values were obtained:
PSMA = biological target: T1, PSMA (Homo sapiens, UniProt Q04609); assay: In vitro competition binding assay using LNCaP cells and [18F]DCFPyL as radioligand; details: displacement of [18F]DCFPyL from LNCaP cells, n = 3; read-out: PSMA binding affinity (Ki)
T1 construct: endogenous in cells; host or cells: LNCaP prostate cancer cells
T1 sequence (Q04609 whole entry): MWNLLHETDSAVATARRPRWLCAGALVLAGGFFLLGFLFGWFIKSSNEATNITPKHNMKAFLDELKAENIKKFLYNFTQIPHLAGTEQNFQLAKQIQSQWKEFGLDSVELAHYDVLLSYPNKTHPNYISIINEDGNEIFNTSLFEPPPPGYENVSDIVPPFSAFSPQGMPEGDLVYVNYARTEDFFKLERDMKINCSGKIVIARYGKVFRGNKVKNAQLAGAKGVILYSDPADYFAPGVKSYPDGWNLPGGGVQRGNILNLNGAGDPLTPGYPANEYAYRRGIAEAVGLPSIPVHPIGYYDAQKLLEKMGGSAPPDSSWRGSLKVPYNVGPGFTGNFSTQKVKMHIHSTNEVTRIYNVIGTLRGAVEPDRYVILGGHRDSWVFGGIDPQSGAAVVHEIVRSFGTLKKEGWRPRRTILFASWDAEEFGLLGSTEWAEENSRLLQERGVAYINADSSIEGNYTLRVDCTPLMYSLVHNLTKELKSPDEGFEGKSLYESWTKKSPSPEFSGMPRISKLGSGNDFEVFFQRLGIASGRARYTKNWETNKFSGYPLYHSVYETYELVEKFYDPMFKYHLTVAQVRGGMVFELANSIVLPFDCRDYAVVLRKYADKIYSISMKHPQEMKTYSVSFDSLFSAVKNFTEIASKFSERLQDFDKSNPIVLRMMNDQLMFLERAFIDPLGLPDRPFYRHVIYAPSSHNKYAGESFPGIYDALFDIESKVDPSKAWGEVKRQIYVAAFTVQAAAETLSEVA
Procedure: The binding assays were conducted following previously published procedures using LNCaP cells and [^18F]DCFPyL as the radioligand [17]-[19]. Briefly, LNCaP cells (400,000/well) were plated onto a 24-well poly-D-lysine coated plate for 48 h. Growth media was removed and replaced with HEPES buffered saline (50 mM HEPES, pH 7.5, 0.9% sodium chloride) and the cells were incubated for 1 h at 37 °C. [^18F]DCFPyL (0.1 nM) was added to each well (in triplicate) containing various concentrations (0.5 mM - 0.05 nM) of tested nonradioactive Ga-complexed compounds. Non-specific binding was determined in the presence of 10 µM non-radiolabeled DCFPyL. The assay mixtures were further incubated for 1 h at 37 °C with gentle agitation. Then, the buffer and radioligand were removed, and cells were washed twice with cold HEPES buffered saline. To harvest the cells, 400 µL of 0.25 % trypsin solution was added to each well. Radioactivity was measured on a PerkinElmer (Waltham, MA) Wizard2 2480 automatic gamma counter. Data analyses of Ki were performed using the nonlinear regression algorithm of GraphPad (San Diego, CA) Prism 7 software.

LNCaP tumor-bearing mice [1] = assay: Radioligand therapy study in LNCaP tumor-bearing NRG mice; details: 500 pmol nonradioactive
LNCaP tumor-bearing mice [2] = assay: Ex vivo biodistribution of 68Ga-labeled ligands in LNCaP tumor-bearing NSG mice; details: 1 h post-injection

Question: For `O=C([O-])CN1CCN(CC(=O)[O-])CCN(CC(=O)NCC2CCC(C(=O)NC(Cc3c4ccccc4cc4ccccc34)C(=O)NCCCCC(NC(=O)NC(CCCC(=O)O)C(=O)O)C(=O)O)CC2)CCN(CC(=O)[O-])CC1.[Lu+3]` (stereo not shown) [Lu-HTK03149], which Ki (PSMA) is on record?
Answer: 1.57 ± 0.42 nM

Question: What about the Median survival (LNCaP tumor-bearing mice [1]) of the same compound?
Answer: 18 days

Question: How did the Adrenal glands uptake (LNCaP tumor-bearing mice [2]) turn out when `O=C([O-])CN1CCN(CC(=O)[O-])CCN(CC(=O)NCC2CCC(C(=O)NC(Cc3c4ccccc4cc4ccccc34)C(=O)NCCCCC(NC(=O)NC(CC(=O)O)C(=O)O)C(=O)O)CC2)CCN(CC(=O)[O-])CC1.[68Ga+3]` (stereo not shown) [[^68Ga]Ga-HTK03161] was run?
Answer: 0.41 ± 0.07 %IA/g

Question: And the Blood uptake (LNCaP tumor-bearing mice [2])?
Answer: 1.13 ± 0.19 %IA/g

Question: What about the “Blood:Salivary gland uptake ratio” value (LNCaP tumor-bearing mice [2]) of the same compound?
Answer: 5.08±0.62

Question: And the Bone uptake (LNCaP tumor-bearing mice [2])?
Answer: 0.11 ± 0.02 %IA/g

Question: What about the Brain uptake (LNCaP tumor-bearing mice [2]) of the same compound?
Answer: 0.02 ± 0.00 %IA/g

Question: What about the Fat uptake (LNCaP tumor-bearing mice [2]) of the same compound?
Answer: 0.15 ± 0.04 %IA/g

Question: And the Heart uptake (LNCaP tumor-bearing mice [2])?
Answer: 0.32 ± 0.05 %IA/g

Question: What about the Intestines uptake (LNCaP tumor-bearing mice [2]) of the same compound?
Answer: 0.31 ± 0.09 %IA/g

Question: And the Kidneys uptake (LNCaP tumor-bearing mice [2])?
Answer: 4.41±1.26 %IA/g

Question: What about the Lacrimal glands uptake (LNCaP tumor-bearing mice [2]) of the same compound?
Answer: 0.12 ± 0.06 %IA/g

Question: What about the Liver uptake (LNCaP tumor-bearing mice [2]) of the same compound?
Answer: 0.28 ± 0.05 %IA/g

Question: And the Lungs uptake (LNCaP tumor-bearing mice [2])?
Answer: 0.75 ± 0.13 %IA/g

Question: What about the Muscle uptake (LNCaP tumor-bearing mice [2]) of the same compound?
Answer: 0.15 ± 0.04 %IA/g

Question: And the Pancreas uptake (LNCaP tumor-bearing mice [2])?
Answer: 0.18 ± 0.03 %IA/g

Question: What about the Salivary glands uptake (LNCaP tumor-bearing mice [2]) of the same compound?
Answer: 0.23±0.05 %IA/g

Question: What about the Spleen uptake (LNCaP tumor-bearing mice [2]) of the same compound?
Answer: 0.27 ± 0.06 %IA/g

Question: What about the Stomach uptake (LNCaP tumor-bearing mice [2]) of the same compound?
Answer: 0.10 ± 0.04 %IA/g

Question: And the Testes uptake (LNCaP tumor-bearing mice [2])?
Answer: 0.54 ± 0.51 %IA/g

Question: And the Thyroid uptake (LNCaP tumor-bearing mice [2])?
Answer: 0.29 ± 0.05 %IA/g

Question: What about the Tumor uptake (LNCaP tumor-bearing mice [2]) of the same compound?
Answer: 12.7±1.91 %IA/g

Question: What about the “Tumor:Blood uptake ratio” value (LNCaP tumor-bearing mice [2]) of the same compound?
Answer: 11.4 ± 1.73

Question: What about the “Tumor:Kidney uptake ratio” value (LNCaP tumor-bearing mice [2]) of the same compound?
Answer: 3.03 ± 0.84

Question: What about the “Tumor:Muscle uptake ratio” value (LNCaP tumor-bearing mice [2]) of the same compound?
Answer: 89.4 ± 36.1

Question: What about the “Tumor:Salivary gland uptake ratio” value (LNCaP tumor-bearing mice [2]) of the same compound?
Answer: 57.2 ± 7.11

Question: What about the Kidneys uptake (LNCaP tumor-bearing mice [2]; listed as [68Ga]Ga-HTK03161) of the same compound?
Answer: 4.41 ± 1.26 %IA/g

Question: What about the Salivary glands uptake (LNCaP tumor-bearing mice [2]; listed as [68Ga]Ga-HTK03161) of the same compound?
Answer: 0.23 ± 0.05 %IA/g

Question: What about the Tumor uptake (LNCaP tumor-bearing mice [2]; listed as [68Ga]Ga-HTK03161) of the same compound?
Answer: 12.7 ± 1.91 %IA/g

Question: Which Ki (PSMA) does the source give for `O=C([O-])CN1CCN(CC(=O)[O-])CCN(CC(=O)NCC2CCC(C(=O)NC(Cc3c4ccccc4cc4ccccc34)C(=O)NCCCCC(NC(=O)NC(CCCC(=O)O)C(=O)O)C(=O)O)CC2)CCN(CC(=O)[O-])CC1.[Ga+3]` (stereo not shown) [Ga-HTK03149] here?
Answer: 6.99 ± 0.8 nM

Question: Which Tumor uptake (LNCaP tumor-bearing mice [2]) does the source give for `O=C([O-])CN1CCN(CC(=O)[O-])CCN(CC(=O)NCC2CCC(C(=O)NC(Cc3c4ccccc4cc4ccccc34)C(=O)NCCCCC(NC(=O)NC(CCCCC(=O)O)C(=O)O)C(=O)O)CC2)CCN(CC(=O)[O-])CC1.[68Ga+3]` (single isomer, unassigned) [[^68Ga]Ga-HTK03189B] here?
Answer: 0.67±0.15 %IA/g

Question: And the Adrenal glands uptake (LNCaP tumor-bearing mice [2]; listed as [68Ga]Ga-HTK03189B)?
Answer: 0.37 ± 0.15 %IA/g

Question: And the Blood uptake (LNCaP tumor-bearing mice [2]; listed as [68Ga]Ga-HTK03189B)?
Answer: 1.06 ± 0.25 %IA/g

Question: And the “Blood:Salivary gland uptake ratio” value (LNCaP tumor-bearing mice [2]; listed as [68Ga]Ga-HTK03189B)?
Answer: 4.86 ± 1.16

Question: And the Bone uptake (LNCaP tumor-bearing mice [2]; listed as [68Ga]Ga-HTK03189B)?
Answer: 0.10 ± 0.02 %IA/g

Question: And the Brain uptake (LNCaP tumor-bearing mice [2]; listed as [68Ga]Ga-HTK03189B)?
Answer: 0.03 ± 0.00 %IA/g

Question: What about the Fat uptake (LNCaP tumor-bearing mice [2]; listed as [68Ga]Ga-HTK03189B) of the same compound?
Answer: 0.17 ± 0.10 %IA/g

Question: What about the Heart uptake (LNCaP tumor-bearing mice [2]; listed as [68Ga]Ga-HTK03189B) of the same compound?
Answer: 0.30 ± 0.06 %IA/g

Question: And the Intestines uptake (LNCaP tumor-bearing mice [2]; listed as [68Ga]Ga-HTK03189B)?
Answer: 0.28 ± 0.07 %IA/g

Question: And the Kidneys uptake (LNCaP tumor-bearing mice [2]; listed as [68Ga]Ga-HTK03189B)?
Answer: 2.13 ± 0.45 %IA/g

Question: What about the Lacrimal glands uptake (LNCaP tumor-bearing mice [2]; listed as [68Ga]Ga-HTK03189B) of the same compound?
Answer: 0.13 ± 0.04 %IA/g

Question: And the Liver uptake (LNCaP tumor-bearing mice [2]; listed as [68Ga]Ga-HTK03189B)?
Answer: 0.39 ± 0.08 %IA/g

Question: And the Lungs uptake (LNCaP tumor-bearing mice [2]; listed as [68Ga]Ga-HTK03189B)?
Answer: 0.82 ± 0.22 %IA/g

Question: What about the Muscle uptake (LNCaP tumor-bearing mice [2]; listed as [68Ga]Ga-HTK03189B) of the same compound?
Answer: 0.12 ± 0.03 %IA/g

Question: What about the Pancreas uptake (LNCaP tumor-bearing mice [2]; listed as [68Ga]Ga-HTK03189B) of the same compound?
Answer: 0.18 ± 0.05 %IA/g

Question: What about the Salivary glands uptake (LNCaP tumor-bearing mice [2]; listed as [68Ga]Ga-HTK03189B) of the same compound?
Answer: 0.22 ± 0.04 %IA/g

Question: And the Spleen uptake (LNCaP tumor-bearing mice [2]; listed as [68Ga]Ga-HTK03189B)?
Answer: 0.20 ± 0.05 %IA/g

Question: And the Stomach uptake (LNCaP tumor-bearing mice [2]; listed as [68Ga]Ga-HTK03189B)?
Answer: 0.11 ± 0.03 %IA/g

Question: What about the Testes uptake (LNCaP tumor-bearing mice [2]; listed as [68Ga]Ga-HTK03189B) of the same compound?
Answer: 0.26 ± 0.05 %IA/g

Question: What about the Thyroid uptake (LNCaP tumor-bearing mice [2]; listed as [68Ga]Ga-HTK03189B) of the same compound?
Answer: 0.29 ± 0.08 %IA/g

Question: And the Tumor uptake (LNCaP tumor-bearing mice [2]; listed as [68Ga]Ga-HTK03189B)?
Answer: 0.67 ± 0.15 %IA/g

Question: What about the “Tumor:Blood uptake ratio” value (LNCaP tumor-bearing mice [2]; listed as [68Ga]Ga-HTK03189B) of the same compound?
Answer: 0.65 ± 0.15

Question: And the “Tumor:Kidney uptake ratio” value (LNCaP tumor-bearing mice [2]; listed as [68Ga]Ga-HTK03189B)?
Answer: 0.32 ± 0.05

Question: What about the “Tumor:Muscle uptake ratio” value (LNCaP tumor-bearing mice [2]; listed as [68Ga]Ga-HTK03189B) of the same compound?
Answer: 5.68 ± 1.12

Question: What about the “Tumor:Salivary gland uptake ratio” value (LNCaP tumor-bearing mice [2]; listed as [68Ga]Ga-HTK03189B) of the same compound?
Answer: 3.08 ± 0.53
